Source: patent US8309718B2, “4-pyrazolyl-N-arylpyrimidin-2-amines and 4-pyrazolyl-N-heteroarylpyrimidin-2-amines as janus kinase inhibitors” (Incyte Corporation, priority 2007, dated 2012)

biological target: T1, human JAK2 (Homo sapiens, UniProt O60674); assay: In vitro JAK kinase assay (HTRF, phosphorylation of biotinylated peptide); assay type: biochemical; conditions: catalytic domain a.a. 828-1132, 30 μM ATP, 500 nM peptide, room temperature 1 hr; read-out: JAK-2 IC50
T1 construct: JAK2 (a.a. 828-1132); His tag (N); made in house; host or cells: insect cells (baculovirus)
T1 sequence (O60674 828-1132): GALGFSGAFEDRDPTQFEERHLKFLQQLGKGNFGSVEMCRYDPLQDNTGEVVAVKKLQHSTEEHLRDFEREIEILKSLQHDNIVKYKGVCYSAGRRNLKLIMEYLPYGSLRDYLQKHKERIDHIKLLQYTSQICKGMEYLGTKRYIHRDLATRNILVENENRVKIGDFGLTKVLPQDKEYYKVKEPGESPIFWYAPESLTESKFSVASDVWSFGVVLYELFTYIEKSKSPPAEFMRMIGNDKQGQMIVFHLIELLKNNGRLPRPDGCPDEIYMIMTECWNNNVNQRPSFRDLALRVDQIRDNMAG
Summary of the method: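 IC50 from HTRF detection (Eu-Py20 antibody, SA-APC) of biotinylated-peptide phosphorylation (500 nM), run 1 h at RT. Enzyme: N-His human JAK2 kinase domain a.a. 828-1132 from insect cells; ATP 30 μM; buffer 50 mM Tris pH 7.8 with NaCl, DTT, BSA.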

Row | IC50 | Structure (SMILES)
1 | < 100 nM | Cn1ccc(S(=O)(=O)N2CCC(CC(CC#N)n3cc(-c4ccnc(Nc5ccc(N6CCOCC6)cc5)n4)cn3)CC2)n1 (racemic) [Example 55, 4-(1-(1-methyl-1H-pyrazol-3-ylsulfonyl)piperidin-4-yl)-3-(4-(2-(4-morpholinophenylamino)pyrimidin-4-yl)-1H-pyrazol-1-yl)butanenitrile]
2 | < 100 nM | CCS(=O)(=O)N1CC(CC#N)(n2cc(-c3ccnc(Nc4ccc(C(=O)N5CC[C@H](F)C5)cc4)n3)cn2)C1 [Example 283, (S)-2-(1-(ethylsulfonyl)-3-(4-(2-(4-(3-fluoropyrrolidine-1-carbonyl)phenylamino)pyrimidin-4-yl)-1H-pyrazol-1-yl)azetidin-3-yl)acetonitrile]
3 | < 100 nM | COC1CCN(C(=O)c2ccc(Nc3nccc(-c4cnn(C(CC#N)C5CCOCC5)c4)n3)cc2)CC1 (racemic) [Example 313, 3-{4-[2-({4-[(4-methoxypiperidin-1-yl)carbonyl]phenyl}amino)pyrimidin-4-yl]-1H-pyrazol-1-yl}-3-(tetrahydro-2H-pyran-4-yl)propanenitrile]
4 | < 100 nM | N#CCC(C1CC1)n1cc(-c2ccnc(Nc3ccc(C(=O)N4CC[C@H](F)C4)cc3)n2)cn1 (mixture of isomers) [Example 271, 3-cyclopropyl-3-(4-(2-(4-((S)-3-fluoropyrrolidine-1-carbonyl)phenylamino)pyrimidin-4-yl)-1H-pyrazol-1-yl)propanenitrile]
5 | < 100 nM | N#CCC1(n2cc(-c3ccnc(Nc4ccc(N5CCCC5=O)cc4)n3)cn2)CC(C#N)C1 (single isomer, unassigned) [Example 340, 3-(cyanomethyl)-3-[4-(2-{[4-(2-oxopyrrolidin-1-yl)phenyl]amino}pyrimidin-4-yl)-1H-pyrazol-1-yl]cyclobutanecarbonitrile]
6 | < 100 nM | N#CCC(C1CCC1)n1cc(-c2ccnc(Nc3ccc(N4CCOCC4=O)cc3)n2)cn1 (racemic) [Example 175, 3-cyclobutyl-3-(4-(2-(4-(3-oxomorpholino)phenylamino)pyrimidin-4-yl)-1H-pyrazol-1-yl)propanenitrile]
7 | < 100 nM | Cc1cnc(Nc2ccc(-n3cccn3)cc2)nc1-c1cnn(C(CC#N)C2CCCC2)c1 (racemic) [Example 71, 3-(4-(2-(4-(1H-pyrazol-1-yl)phenylamino)-5-methylpyrimidin-4-yl)-1H-pyrazol-1-yl)-3-cyclopentylpropanenitrile]
8 | < 100 nM | Cc1cnc(Nc2ccc([N+](=O)[O-])cc2)nc1-c1cnn(C(CC#N)C2CCCC2)c1 (racemic) [Example 82, 3-cyclopentyl-3-(4-(5-methyl-2-(4-nitrophenylamino)pyrimidin-4-yl)-1H-pyrazol-1-yl)propanenitrile]
9 | < 100 nM | CCS(=O)(=O)N1CC(CC#N)(n2cc(-c3ccnc(Nc4ccc(C(=O)N5CCC(C#N)CC5)cc4)n3)cn2)C1 (racemic) [Example 319, 1-{4-[(4-{1-[3-(cyanomethyl)-1-(ethylsulfonyl)azetidin-3-yl]-1H-pyrazol-4-yl}pyrimidin-2-yl)amino]benzoyl}piperidine-4-carbonitrile]
10 | < 100 nM | N#CCC(C1CC1)n1cc(-c2ccnc(Nc3ccc(C(=O)N4C5CC6CC4CC(C5)O6)cc3)n2)cn1 (racemic) [Example 262, 3-cyclopropyl-3-(4-(2-(4-(2-oxa-6-azatricyclo[3.3.1.1(3,7)]dec-6-ylcarbonyl)phenyl)aminopyrimidin-4-yl)-1H-pyrazol-1-yl)propanenitrile]
11 | < 100 nM | N#CCC(C1CCCC1)n1cc(-c2ccnc(Nc3ccc(NS(=O)(=O)c4ccc(-c5ccccn5)s4)cc3)n2)cn1 (racemic) [Example 195, N-(4-(4-(1-(2-cyano-1-cyclopentylethyl)-1H-pyrazol-4-yl)pyrimidin-2-ylamino)phenyl)-5-(pyridin-2-yl)thiophene-2-sulfonamide]
12 | < 100 nM | Cc1cc(OC2CCC(CC#N)(n3cc(-c4ccnc(Nc5ccc(N6CCCCC6=O)cc5)n4)cn3)CC2)no1 (single isomer, unassigned) [Example 245, 2-(4-(5-methylisoxazol-3-yloxy)-1-(4-(2-(4-(2-oxopiperidin-1-yl)phenylamino)pyrimidin-4-yl)-1H-pyrazol-1-yl)cyclohexyl)acetonitrile]
13 | < 100 nM | Cc1cnc(Nc2ccc(C(=O)N3CCC(O)CC3)cc2)nc1-c1cnn(C(CC#N)C2CCCC2)c1 (racemic) [Example 88, 3-cyclopentyl-3-(4-(2-(4-(4-hydroxypiperidine-1-carbonyl)phenylamino)-5-methylpyrimidin-4-yl)-1H-pyrazol-1-yl)propanenitrile]
14 | < 100 nM | N#CCC1(n2cc(-c3ccnc(Nc4ccc(-n5cccn5)cc4)n3)cn2)CN(S(=O)(=O)C2CC2)C1 (racemic) [Example 17, 2-(3-(4-(2-(4-(1H-pyrazol-1-yl)phenylamino)pyrimidin-4-yl)-1H-pyrazol-1-yl)-1-(cyclopropylsulfonyl)azetidin-3-yl)acetonitrile]
15 | < 100 nM | Cc1cnc(Nc2ccc(-n3cccn3)cc2)nc1-c1cnn(C(CC#N)CC2CCN(C(=O)c3ccc(F)cc3F)CC2)c1 (racemic) [Example 64, 3-(4-(2-(4-(1H-pyrazol-1-yl)phenylamino)-5-methylpyrimidin-4-yl)-1H-pyrazol-1-yl)-4-(1-(2,4-difluorobenzoyl)piperidin-4-yl)butanenitrile]
16 | < 100 nM | COC(=O)Nc1ccc(Nc2ncc(C)c(-c3cnn(C(CC#N)C4CCCC4)c3)n2)cc1 (racemic) [Example 90, Methyl 4-(4-(1-(2-cyano-1-cyclopentylethyl)-1H-pyrazol-4-yl)-5-methylpyrimidin-2-ylamino)phenylcarbamate]
17 | < 100 nM | N#CCC(C1CCCC1)n1cc(-c2ccnc(Nc3ccc(C(=O)N4CC[C@H](C#N)C4)cc3)n2)cn1 (mixture of isomers) [Example 225, (3S)-1-(4-(4-(1-(2-cyano-1-cyclopentylethyl)-1H-pyrazol-4-yl)pyrimidin-2-ylamino)benzoyl)pyrrolidine-3-carbonitrile]
18 | < 100 nM | CN(C)C1CCN(C(=O)c2ccc(Nc3nccc(-c4cnn(C(CC#N)C5CCCC5)c4)n3)cc2)C1 (mixture of isomers) [Example 230, 3-cyclopentyl-3-(4-(2-(4-(3-(dimethylamino)pyrrolidine-1-carbonyl)phenylamino)pyrimidin-4-yl)-1H-pyrazol-1-yl)propanenitrile]
19 | < 100 nM | COC1CCN(C(=O)c2ccc(Nc3nccc(-c4cnn(C5(CC#N)CC(C#N)C5)c4)n3)cc2)CC1 (single isomer, unassigned) [Example 295, 3-(cyanomethyl)-3-(4-(2-(4-(4-methoxypiperidine-1-carbonyl)phenylamino)pyrimidin-4-yl)-1H-pyrazol-1-yl)cyclobutanecarbonitrile]
20 | < 100 nM | N#CCC(C1CCCC1)n1cc(-c2ccnc(Nc3ccc(N4CCNCC4)cc3)n2)cn1 (racemic) [Example 41, 3-cyclopentyl-3-(4-(2-(4-(piperazin-1-yl)phenylamino)pyrimidin-4-yl)-1H-pyrazol-1-yl)propanenitrile]
21 | < 100 nM | N#CCC(C1CCOCC1)n1cc(-c2ccnc(Nc3ccc(N4CCOCC4)cc3)n2)cn1 (racemic) [Example 308, 3-(4-{2-[(4-morpholin-4-ylphenyl)amino]pyrimidin-4-yl}-1H-pyrazol-1-yl)-3-(tetrahydro-2H-pyran-4-yl)propanenitrile]
22 | < 100 nM | CCOC(=O)N1CCC(NC(=O)c2ccc(Nc3nccc(-c4cnn(C(CC#N)C5CC5)c4)n3)cc2)CC1 (racemic) [Example 272, Ethyl 4-(4-(4-(1-(2-cyano-1-cyclopropylethyl)-1H-pyrazol-4-yl)pyrimidin-2-ylamino)benzoyl)aminopiperidine-1-carboxylate]
23 | < 100 nM | N#CCC(C1CCCC1)n1cc(-c2ccnc(Nc3ccc(NC(=O)c4ccccc4)cc3)n2)cn1 (racemic) [Example 183, N-(4-(4-(1-(2-cyano-1-cyclopentylethyl)-1H-pyrazol-4-yl)pyrimidin-2-ylamino)phenyl)benzamide]
24 | < 100 nM | CS(=O)(=O)N1CCC(CC(CC#N)n2cc(-c3ccnc(Nc4ccc(N5CCOCC5=O)cc4)n3)cn2)CC1 (racemic) [Example 95, 4-(1-(methylsulfonyl)piperidin-4-yl)-3-(4-(2-(4-(3-oxomorpholino)phenylamino)pyrimidin-4-yl)-1H-pyrazol-1-yl)butanenitrile]
25 | < 100 nM | N#CCC1(n2cc(-c3ccnc(Nc4ccc(N5CCCCC5=O)cc4)n3)cn2)CC(C#N)C1 (single isomer, unassigned) [Example 336, 3-(cyanomethyl)-3-[4-(2-{[4-(2-oxopiperidin-1-yl)phenyl]amino}pyrimidin-4-yl)-1H-pyrazol-1-yl]cyclobutanecarbonitrile]
26 | < 100 nM | CN(C)C(=O)C1CCN(C(=O)c2ccc(Nc3nccc(-c4cnn(C(CC#N)C5CCCC5)c4)n3)cc2)CC1 (racemic) [Example 234, 1-(4-(4-(1-(2-cyano-1-cyclopentylethyl)-1H-pyrazol-4-yl)pyrimidin-2-ylamino)benzoyl)-N,N-dimethylpiperidine-4-carboxamide]
27 | < 100 nM | N#CCC1(n2cc(-c3ccnc(Nc4ccc(N5CCOC5=O)cc4)n3)cn2)CC(C#N)C1 (single isomer, unassigned) [Example 339, 3-(cyanomethyl)-3-[4-(2-{[4-(2-oxo-1,3-oxazolidin-3-yl)phenyl]amino}pyrimidin-4-yl)-1H-pyrazol-1-yl]cyclobutanecarbonitrile]
28 | < 100 nM | N#CCC(CC1CCN(C(=O)c2ccc(F)cc2F)CC1)n1cc(-c2ccnc(Nc3ccc(-n4cccn4)cc3)n2)cn1 (racemic) [Example 6, 3-(4-(2-(4-(1H-pyrazol-1-yl)phenylamino)pyrimidin-4-yl)-1H-pyrazol-1-yl)-4-(1-(2,4-difluorobenzoyl)piperidin-4-yl)butanenitrile]
